Measurements reported in patent US10448639B2, “Fungicidal pyrazoles” (FMC CORPORATION, priority 2009, dated 2019).
Like-named read-outs stand apart in the source and are kept apart here.

Columns and labels:
[1] = tested on: Plasmopara viticola; assay: Test A: grape downy mildew, curative spray on inoculated grape seedlings, visual disease rating; assay type: in vivo; details: 100 = 100% disease control; for Test A rating (% disease control): 0 = no control relative to controls
Text: Upon removal, visual disease ratings were made. […] A dash (-) indicates no test results.

[2] = tested on: Erysiphe graminis f sp. tritici; assay: Test J: wheat powdery mildew, preventive spray on wheat seedlings, visual disease rating
[3] = tested on: Rhizoctonia solani; assay: Test E: turf brown patch, preventive spray on creeping bent grass (Agrostis sp.) seedlings, disease rating; assay type: in vivo; details: 100 = 100% disease control
Text: A dash (-) indicates no test results.

[4] = tested on: Alternaria solani; assay: Test C: tomato early blight, preventive spray on tomato seedlings, visual disease rating
[5] = tested on: Puccinia recondita f. sp. tritici; assay: Test I: wheat leaf rust, preventive spray on wheat seedlings, visual disease rating
Text: General protocol for preparing test suspensions for Tests A-J: the test compounds were first dissolved in acetone in an amount equal to 3% of the final volume and then suspended at the desired concentration (in ppm) in acetone and purified water (50/50 mix by volume) containing 250 ppm of the surfactant Trem® 014 (polyhydric alcohol esters). The resulting test suspensions were then used in Tests A-J. Spraying a 200 ppm test suspension to the point of run-off on the test plants was the equivalent of a rate of 500 g/ha. Unless otherwise indicated, the rating values indicate a 200 ppm test suspension was used. (An asterisk “*” next to the rating value indicates a 40 ppm test suspension was used.)
The test suspension was sprayed to the point of run-off on wheat seedlings. The following day the seedlings were inoculated with a spore suspension of Puccinia recondita f. sp. tritici (the causal agent of wheat leaf rust) and incubated in a saturated atmosphere at 20° C. for 24 h, and then moved to a growth chamber at 20° C. for 7 days, after which time visual disease ratings were made

[6] = tested on: Septoria tritici; assay: Test G: wheat leaf blotch, preventive spray on wheat seedlings, visual disease rating; details: for Test G rating (% disease control): preventive spray, 0 = no control
[7] = tested on: Septoria nodorum; assay: Test F: Septoria glume blotch, preventive spray on wheat seedlings, visual disease rating
[8] = tested on: Phytophthora infestans; assay type: in vivo; details: tomato late blight, 100 = 100% disease control
[9] = tested on: Botrytis cinerea; assay: Test B: tomato Botrytis, preventive spray on tomato seedlings, visual disease rating
[10] = preventive spray, 0 = no control
[11] = wheat powdery mildew, preventive spray, 100 = 100% disease control, 0 = no control
[12] = tomato early blight, preventive spray, 100 = 100% disease control, 0 = no control
[13] = wheat leaf rust, preventive spray, 100 = 100% disease control, 0 = no control
[14] = wheat leaf blotch, 100 = 100% disease control
[15] = Septoria glume blotch on wheat, preventive spray, 100 = 100% disease control, 0 = no control
[16] = tomato Botrytis, preventive spray, 100 = 100% disease control, 0 = no control
[17] = wheat powdery mildew, 100 = 100% disease control, 0 = no control relative to controls
[18] = 0 = no control relative to controls
[19] = tomato early blight, 100 = 100% disease control, 0 = no control relative to controls
[20] = wheat leaf rust, preventive, 100 = 100% disease control, 0 = no control relative to controls
[21] = Septoria glume blotch, 100 = 100% disease control, 0 = no control relative to controls
[22] = tomato Botrytis, 100 = 100% disease control, 0 = no control relative to controls
[23] = 0 = no disease control relative to controls

SMILES | Test A rating (% disease control) ([1]; curative spray) | Test E rating (% disease control) [3, 10] | Test D rating (% disease control) [8, 10] | Test J rating (% disease control) [2, 11] | Test C rating (% disease control) [4, 12] | Test I rating (% disease control) [5, 13] | Test G rating (% disease control) [6, 14] | Test F rating (% disease control) [7, 15] | Test B rating (% disease control) [9, 16] | other results
Cc1nn(C)c(Nc2cccc(Cl)c2)c1-c1ccc(F)cc1F [Compound 1, N-(3-Chlorophenyl)-4-(2,4-difluorophenyl)-1,3-dimethyl-1H-pyrazol-5-amine] | 0% | 47% | 0% | – | – | – | – | – | – | pest or weed control at 200 µg/mL ([2]; Blumeria graminis, in Triticum aestivum, 192 h, read-out: Test J rating (% disease control)): 98%; pest or weed control at 200 µg/mL ([4]; Alternaria solani, in Solanum lycopersicum, 168 h, read-out: Test C rating (% disease control)): 0%; pest or weed control at 200 µg/mL ([5]; 192 h, read-out: Test I rating (% disease control)): 0%; pest or weed control at 200 µg/mL ([6]; Zymoseptoria tritici, in Triticum aestivum, 504 h, read-out: Test G rating (% disease control)): 99%; pest or weed control at 200 µg/mL ([7]; Parastagonospora nodorum, in Triticum aestivum, 192 h, read-out: Test F rating (% disease control)): 0%; pest or weed control at 200 µg/mL ([9]; Botrytis cinerea, in Solanum lycopersicum, 120 h, read-out: Test B rating (% disease control)): 99%
COc1cc(Nc2c(-c3ccc(F)cc3F)c(C)nn2C)cc(OC)c1 [compound 2] | 8% | 0% | 0% | 0% | 0% | 0% | 0% | 0% | 1% | –
Cc1nn(C)c(N(C)c2cccc(Cl)c2)c1-c1ccc(F)cc1F [compound 3] | 6% | 0% | 9% | 99% | 25% | 0% | 13% | 0% | 0% | –
Cc1nn(C)c(Nc2ccc(F)cc2F)c1-c1ccc(Cl)cc1 [compound 4] | 29% | 0% | 0% | 97% | 46% | 53% | 98% | 0% | 87% | –
Cc1nn(C)c(Nc2cc(F)cc(F)c2)c1-c1ccc(Cl)cc1 [compound 5] | 36% | 0% | 0% | 0% | 25% | 0% | 0% | 0% | 0% | –
Cc1nn(C)c(N(C)c2cc(F)cc(F)c2)c1-c1ccc(Cl)cc1 [compound 6] | 65% | 0% | 0% | 93% | 23% | 0% | 0% | 0% | 10% | –
Cc1nn(C)c(Nc2ccc(F)c(Cl)c2)c1-c1ccc(F)cc1Cl [compound 7] | 29% | 63% | 0% | 92% | 0% | 74% | 100% | 0% | 99% | –
Cc1nn(C)c(Nc2cccc(F)c2)c1-c1ccc(F)cc1Cl [compound 8] | 55% | 99% | 0% | 99% | 54% | 97% | 100% | 0% | 99% | –
COc1cc(Nc2c(-c3c(F)cccc3F)c(C)nn2C)cc(OC)c1 [compound 37] | 0% | 0% | 0% | 0% | 0% | 0% | 3% | 0% | 0% | –
COc1ccc(Nc2c(-c3ccc(F)cc3Cl)c(C)nn2C)cc1 [compound 288] | – | – | – | – | – | – | – | – | – | Test A rating (% disease control) [1]: 9%; Test J rating (% disease control) [2, 17]: 92%; Test E rating (% disease control) [3, 18]: 92%; Test C rating (% disease control) [4, 19]: 52%; Test I rating (% disease control) [5, 20]: 74%; Test F rating (% disease control) [7, 21]: 0%; Test D rating (% disease control) [8, 18]: 0%; Test B rating (% disease control) [9, 22]: 99%
Cc1nn(C)c(N(C)c2c(F)cc(F)cc2F)c1-c1ccc(F)cc1Cl [compound 293] | – | – | – | – | – | – | – | – | – | Test A rating (% disease control) [1]: 0%; Test J rating (% disease control) [2, 17]: 99%; Test E rating (% disease control) [3, 18]: 99%; Test C rating (% disease control) [4, 19]: 47%; Test I rating (% disease control) [5, 20]: 94%; Test F rating (% disease control) [7, 21]: 0%; Test D rating (% disease control) [8, 18]: 0%; Test B rating (% disease control) [9, 22]: 97%
CCN(c1c(F)cc(F)cc1F)c1c(-c2ccc(F)cc2Cl)c(C)nn1C [compound 294] | – | – | – | – | – | – | – | – | – | Test A rating (% disease control) [1]: 0%; Test J rating (% disease control) [2, 17]: 84%; Test E rating (% disease control) [3, 18]: 80%; Test C rating (% disease control) [4, 19]: 0%; Test I rating (% disease control) [5, 20]: 0%; Test F rating (% disease control) [7, 21]: 0%; Test D rating (% disease control) [8, 18]: 0%; Test B rating (% disease control) [9, 22]: 98%
Cc1nn(C)c(N(CC#N)c2c(F)cc(F)cc2F)c1-c1ccc(F)cc1Cl [compound 326] | – | – | – | – | – | – | – | – | – | Test A disease control rating [1, 23]: 8%; Test J disease control rating ([2]; wheat powdery mildew, sprayed the day before inoculation, 100 = 100% disease control, 0 = no disease control relative to controls): 94%; Test E disease control rating [3, 23]: 99%; Test C disease control rating ([4]; tomato early blight, 100 = 100% disease control, 0 = no disease control relative to controls): 99%; Test I disease control rating ([5]; wheat leaf rust, sprayed the day before inoculation, 100 = 100% disease control, 0 = no disease control relative to controls): 99%; Test G disease control rating ([6]; wheat leaf blotch, sprayed the day before inoculation, 100 = 100% disease control, 0 = no disease control relative to controls): 100%; Test F disease control rating ([7]; Septoria glume blotch on wheat, 100 = 100% disease control, 0 = no disease control relative to controls): 73%; Test D disease control rating [8, 23]: 0%; Test B disease control rating ([9]; tomato Botrytis, 100 = 100% disease control, 0 = no disease control relative to controls): 99%
